Drawing on DBAASP, this text covers MIC for 6 compounds.

≈ marks a conversion by molar mass, not a printed value.

Test systems include Escherichia coli MG1655; Acinetobacter baumannii; Klebsiella pneumoniae; Pseudomonas aeruginosa; Rhizoctonia solani; Fusarium solani; Ramulariopsis gossypii; Trichoderma asperellum; Fusarium oxysporum.
Test in all cases: ≥ marks a high value that may be exact or a test limit, other limits are often not marked, values filed in µg/mL are converted to µM
Test [1] relates to Escherichia coli ATCC 25922.
Test [2] relates to Candida albicans NCTC 3179.
Test [3] has as its system Staphylococcus aureus ATCC 25923.
In test [4] the test system is Staphylococcus aureus ATCC 33592.
Test [5] concerns Candida albicans ATCC 18804.
Test [6] deals with Vibrio vulnificus 1H00066.
Test [7] deals with Staphylococcus aureus 1D00101.
Test [8] relates to Micrococcus luteus 1D00051.
In test [9] the test system is Klebsiella pneumoniae ATCC BAA-2146.
Test [10] concerns Candida albicans ATCC 90028.
In test [11] the test system is Bacillus subtilis ATCC 6051.
In test [12] the test system is Staphylococcus aureus ATCC 43300.
In test [13] the test system is Klebsiella pneumoniae ATCC 700603.
Test [14] relates to Acinetobacter baumannii ATCC 19606.
Test [15] concerns Pseudomonas aeruginosa ATCC 27853.
Test [16] concerns Cryptococcus neoformans ATCC 208821.
In test [17] the test system is Klebsiella pneumoniae ATCC 13883.
Test [18] has as its system Bacillus cereus ATCC 14579.
In test [19] the test system is Fusarium oxysporum f.sp. vasinfectum.
Test [20] deals with Pectobacterium carotovorum.
Test [21] relates to Xanthomonas campestris pv. citri.
For test [22], the system named is Pseudomonas syringae pv. tabaci.
Test [23] has as its system Cryptococcus neoformans ATCC 28957.
For test [24], the system named is Bacillus subtilis ATCC 23857.
The subject of test [25] is Enterococcus faecalis KCCM 11814.
Test [26] deals with Enterococcus faecium ATCC 51559.
The test system of test [27] is Salmonella typhimurium KCTC 1926.
For test [28], the system named is Enterococcus faecium KCCM 12118.
The test system of test [29] is Trichosporon beigelii KCTC 7707.
Test [30] concerns Enterococcus faecalis KCCM 29212.
Test [31] deals with Acinetobacter baumannii ATCC BAA-1605.
In test [32] the test system is Candida parapsilosis ATCC 22019.
Test [33] has as its system Acinetobacter baumannii KCCM 40203.
In test [34] the test system is Escherichia coli KCTC 1682.
Test [35] relates to Pseudomonas aeruginosa CCARM 2180.
For test [36], the system named is Malassezia furfur KCTC 7744.
For test [37], the system named is Bacillus subtilis KCTC 3068.
Test [38] deals with Staphylococcus epidermidis KCTC 1917.

As a reminder, the MIC is the lowest concentration that inhibits growth of the organism. A higher MIC goes with a less susceptible organism. In the case of `CC[C@H](C)[C@H](NC(=O)[C@H](C)NC(=O)[C@H](CC(=O)O)NC(=O)[C@H](CC(C)C)NC(=O)[C@H](CC(N)=O)NC(=O)[C@H](C)N)C(=O)N[C@H](C(=O)N[C@@H](CCCCN)C(=O)N[C@H](C(=O)N[C@@H](CCC(N)=O)C(=O)N[C@@H](C)C(=O)N[C@@H](Cc1c[nH]c2ccccc12)C(=O)N[C@@H](C)C(=O)N[C@@H](CCCN=C(N)N)C(=O)N[C@@H](CCSC)C(=O)N[C@@H](Cc1c[nH]c2ccccc12)C(=O)N[C@@H](C)C(=O)N[C@@H](C)C(=O)N[C@@H](CCCN=C(N)N)C(=O)N[C@@H](CCCN=C(N)N)C(=O)N[C@@H](CCC(N)=O)C(=O)N[C@@H](Cc1ccc(O)cc1)C(=O)N[C@@H](CC(C)C)C(=O)O)[C@@H](C)CC)[C@@H](C)CC` [ANLDAIIKIQAWARMWAARRQYL], the figures for the MIC in [1], in test [2] and in [3] were 2.03 µM (≈ 5.6 µg/mL), at least 90.6 µM and 11.2 µM (≈ 31 µg/mL), respectively.

For the compound `CC[C@H](C)[C@H](NC(C)=O)C(=O)N[C@@H](CCCCN)C(=O)N[C@@H](CCCN=C(N)N)C(=O)N[C@@H](CC(C)C)C(=O)N[C@@H](CC(N)=O)C(=O)N[C@@H](CO)C(=O)N[C@@H](Cc1c[nH]c2ccccc12)C(=O)N[C@@H](CC(C)C)C(=O)N[C@@H](CCCN=C(N)N)C(=O)N[C@@H](CCCCN)C(N)=O` [IKRLNSWLRK], the MIC in test [4] was at least 128 µM; in test [5] it was at least 128 µM; in the test on Escherichia coli MG1655 it was at least 64 µM.

As for `CC[C@H](C)[C@H](NC(=O)[C@H](CCCN=C(N)N)NC(=O)[C@@H](NC(=O)[C@H](CCSC)NC(=O)[C@@H]1CCCN1C(=O)CNC(=O)[C@H](Cc1cnc[nH]1)NC(=O)[C@@H](NC(=O)[C@H](CCCCN)NC(=O)[C@H](CCCN=C(N)N)NC(=O)[C@H](CCCN=C(N)N)NC(=O)[C@H](CCCN=C(N)N)NC(=O)[C@H](CS)NC(=O)[C@@H](N)CCCCN)C(C)C)[C@@H](C)CC)C(=O)N[C@@H](CCCN=C(N)N)C(=O)N[C@@H](CCCCN)C(=O)N[C@@H](CCCCN)C(=O)O` [KCRRRKVHGPMIRIRKK], the MIC in test [6] was at least 80 µM; in test [7], 4 µM (≈ 8.65 µg/mL); in test [8], 9 µM (≈ 19.5 µg/mL).

As to `CC[C@H](C)[C@@H]1NC(=O)CNC(=O)[C@H](CCCN=C(N)N)NC(=O)CNC(=O)[C@@H]2CSSC[C@H](NC1=O)C(=O)N[C@@H](Cc1ccc(O)cc1)C(=O)N[C@@H](CCCN=C(N)N)C(=O)N[C@@H](CCCN=C(N)N)C(=O)N[C@H](C(=O)N[C@@H](CCCN=C(N)N)C(=O)O)CSSC[C@H](NC(=O)[C@H](Cc1c[nH]c3ccccc13)NC(=O)[C@@H](N)CCCCN)C(=O)N[C@@H](Cc1ccccc1)C(=O)N[C@@H](CCCN=C(N)N)C(=O)N[C@@H](C(C)C)C(=O)N2` [KWCFRVCGRGICYRRCR], the MIC was 0.925 µM (≈ 2 µg/mL) against Acinetobacter baumannii; over 7.4 µM with Klebsiella pneumoniae; 3.7 µM (≈ 7.99 µg/mL) in test [9]; 0.231 µM (≈ 0.499 µg/mL) in test [1]; 7.4 µM (≈ 16 µg/mL) in [10]; 0.231 µM (≈ 0.499 µg/mL) in test [11]. Moreover, the minimum inhibitory concentration (MIC) in the test on Pseudomonas aeruginosa is 7.4 µM (≈ 16 µg/mL); in test [12] it was 7.4 µM (≈ 16 µg/mL); in test [13], 3.7 µM (≈ 7.99 µg/mL); in test [14], 0.462 µM (≈ 0.998 µg/mL); in [15], 3.7 µM (≈ 7.99 µg/mL); in [16], 1.85 µM (≈ 3.99 µg/mL). This compound also displayed an MIC in test [17] of 0.925 µM (≈ 2 µg/mL).

Consider `CC(C)C[C@H](NC(=O)[C@H](C)NC(=O)[C@H](C)NC(=O)[C@@H](NC(=O)[C@H](CC(C)C)NC(=O)[C@H](CCCCN)NC(=O)[C@@H](NC(=O)[C@H](CC(C)C)NC(=O)[C@H](CCCN=C(N)N)NC(=O)[C@H](Cc1cnc[nH]1)NC(=O)[C@@H](N)CC(C)C)C(C)C)C(C)C)C(=O)N[C@@H](CC(C)C)C(=O)N[C@@H](CCCN=C(N)N)C(=O)NCC(=O)N[C@@H](Cc1ccc(O)cc1)C(=O)N[C@@H](C)C(=O)N[C@@H](CO)C(=O)N[C@@H](CCCCN)C(=O)N[C@H](C(=O)N[C@@H](CC(=O)O)C(=O)N[C@H](C(=O)N[C@@H](Cc1cnc[nH]1)C(N)=O)[C@@H](C)O)C(C)C` [LHRLVKLVAALLRGYASKVDTH], for which the MIC is 2 µM (≈ 4.92 µg/mL) in test [1]; 6.67 µM (≈ 16.4 µg/mL) in test [18]; 16 µM (≈ 39.4 µg/mL) in the test with Rhizoctonia solani; 4 µM (≈ 9.84 µg/mL) in test [10]; 2 µM (≈ 4.92 µg/mL) in test [19]; 3.33 µM (≈ 8.19 µg/mL) in test [20]. Besides, the minimum inhibitory concentration (MIC) in test [21] is 4 µM (≈ 9.84 µg/mL); in the test with Fusarium solani it was at least 32 µM; against Ramulariopsis gossypii, 4 µM (≈ 9.84 µg/mL); in test [22] it was 4 µM (≈ 9.84 µg/mL); with Trichoderma asperellum it was 16 µM (≈ 39.4 µg/mL); in [23], 8 µM (≈ 19.7 µg/mL). Further, the MIC in test [15] was 4 µM (≈ 9.84 µg/mL); in test [3], 2 µM (≈ 4.92 µg/mL); in the test with Fusarium oxysporum, at least 32 µM; in [24], 2 µM (≈ 4.92 µg/mL).

For the compound `CC[C@H](C)[C@H](NC(=O)[C@H](Cc1c[nH]c2ccccc12)NC(=O)[C@H](CC(C)C)NC(=O)[C@@H](N)CC(C)C)C(=O)N[C@@H](C)C(=O)N[C@@H](CC(C)C)C(=O)N[C@@H](CCCN=C(N)N)C(=O)N[C@@H](CCCCN)C(=O)N[C@@H](CCCCN)C(N)=O` [LLWIALRKK], the MIC in [25] is at least 80 µM; in test [26], 1.75 µM (≈ 2 µg/mL); in test [27], 3.51 µM (≈ 4 µg/mL); in [28] it was 7.01 µM (≈ 7.99 µg/mL); in [29], 1.32 µM (≈ 1.5 µg/mL); in [30], 7.01 µM (≈ 7.99 µg/mL). Also, the MIC in [10] was 0.614 µM (≈ 0.699 µg/mL); in [31] it was at least 80 µM; in test [32], 0.614 µM (≈ 0.699 µg/mL); in test [33] it was at least 80 µM; in test [34], 3.51 µM (≈ 4 µg/mL); in test [35] it was at least 80 µM. Further, the MIC in test [36] stood at 0.614 µM (≈ 0.699 µg/mL); in test [37] it was 3.51 µM (≈ 4 µg/mL); in test [38] it was 3.51 µM (≈ 4 µg/mL).
